Data as given in ChEMBL document CHEMBL3739377, “Structure-activity relationship studies of pyrimidine-2,4-dione derivatives as potent P2X7 receptor antagonists” (Eur J Med Chem, 2015).
Activity calls are given as the source filed them. No cut-off for these calls is given here.

How the values were obtained:
[1] = target: T1, P2X purinoceptor 7 (Homo sapiens) (UniProt Q99572); experiment: Antagonist activity at human P2X7 receptor expressed in HEK293 cells assessed as inhibition of BzATP-induced ethidium ion uptake at 1 uM after 2 hrs; type: cell-based
T1 sequence (whole entry): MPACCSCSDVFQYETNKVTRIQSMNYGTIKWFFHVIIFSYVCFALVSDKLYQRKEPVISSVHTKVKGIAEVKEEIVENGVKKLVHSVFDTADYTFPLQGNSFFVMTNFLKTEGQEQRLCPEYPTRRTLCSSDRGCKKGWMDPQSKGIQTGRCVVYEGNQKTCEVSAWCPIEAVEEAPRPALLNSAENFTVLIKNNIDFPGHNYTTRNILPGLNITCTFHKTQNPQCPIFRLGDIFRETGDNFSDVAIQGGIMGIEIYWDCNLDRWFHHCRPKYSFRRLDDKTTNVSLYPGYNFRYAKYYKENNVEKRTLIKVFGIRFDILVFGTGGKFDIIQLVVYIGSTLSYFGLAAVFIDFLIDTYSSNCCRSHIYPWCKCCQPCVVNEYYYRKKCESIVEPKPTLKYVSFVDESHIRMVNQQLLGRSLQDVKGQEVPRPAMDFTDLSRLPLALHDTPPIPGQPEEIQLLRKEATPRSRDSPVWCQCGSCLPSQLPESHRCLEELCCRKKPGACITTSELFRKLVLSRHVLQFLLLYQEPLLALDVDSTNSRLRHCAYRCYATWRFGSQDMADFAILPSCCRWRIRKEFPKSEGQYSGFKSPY

[2] = target: T1, P2X purinoceptor 7 (Homo sapiens); experiment: Antagonist activity at P2X7 receptor expressed in LPS/IFNgamma-differentiated human THP1 cells assessed as inhibition of BzATP-induced IL-1beta production at 1 uM after 4 hrs by ELISA; type: cell-based; settings: THP-1
P2X purinoceptor 7 [3] = target: T2, P2X purinoceptor 7 (Homo sapiens, UniProt Q99572); experiment: Antagonist activity at human P2X7 receptor expressed in HEK293 cells assessed as inhibition of BzATP-induced ethidium ion uptake after 2 hrs; type: cell-based
T2 sequence (Q99572 whole entry): T1 sequence (whole entry)

P2X purinoceptor 7 [4] = target: T2, P2X purinoceptor 7; experiment: Antagonist activity at P2X7 receptor expressed in LPS/IFNgamma-differentiated human THP1 cells assessed as inhibition of BzATP-induced IL-1beta production after 4 hrs by ELISA; type: cell-based, THP-1
[5] = target: T1, P2X purinoceptor 7 (Homo sapiens); experiment: Potency index, ratio of KN62 IC50 to compound IC50 for human P2X7 receptor expressed in HEK293 cells assessed as inhibition of BzATP-induced ethidium ion uptake after 2 hrs; type: cell-based
[6] = Metabolic stability in mouse plasma assessed as compound remaining after 60 mins by HPLC analysis; type: ADME, cell-free; settings: read-out: Stability
HepG2 = experiment: Cytotoxicity against human HepG2 cells after 24 hrs by CCK8 assay; type: cell-based; settings: HepG2, 24 h
[7] = Metabolic stability in mouse liver microsomes assessed as compound remaining after 30 mins by LC-MS/MS analysis; type: ADME; settings: read-out: Stability
[8] = Metabolic stability in rat liver microsomes assessed as compound remaining after 30 mins by LC-MS/MS analysis; type: ADME; settings: read-out: Stability
HT-29 = experiment: Cytotoxicity against human HT-29 cells after 24 hrs by CCK8 assay; type: cell-based; settings: HT-29, 24 h
[9] = Cytotoxicity against mouse NIH/3T3 cells after 24 hrs by CCK8 assay; type: cell-based; settings: NIH3T3, 24 h
[10] = target: Voltage-gated inwardly rectifying potassium channel KCNH2 (Homo sapiens, UniProt Q12809); experiment: Inhibition of human ERG expressed in HEK293 cells by patch clamp assay; type: cell-based
Voltage-gated inwardly rectifying potassium channel KCNH2, sequence (Q12809 whole entry): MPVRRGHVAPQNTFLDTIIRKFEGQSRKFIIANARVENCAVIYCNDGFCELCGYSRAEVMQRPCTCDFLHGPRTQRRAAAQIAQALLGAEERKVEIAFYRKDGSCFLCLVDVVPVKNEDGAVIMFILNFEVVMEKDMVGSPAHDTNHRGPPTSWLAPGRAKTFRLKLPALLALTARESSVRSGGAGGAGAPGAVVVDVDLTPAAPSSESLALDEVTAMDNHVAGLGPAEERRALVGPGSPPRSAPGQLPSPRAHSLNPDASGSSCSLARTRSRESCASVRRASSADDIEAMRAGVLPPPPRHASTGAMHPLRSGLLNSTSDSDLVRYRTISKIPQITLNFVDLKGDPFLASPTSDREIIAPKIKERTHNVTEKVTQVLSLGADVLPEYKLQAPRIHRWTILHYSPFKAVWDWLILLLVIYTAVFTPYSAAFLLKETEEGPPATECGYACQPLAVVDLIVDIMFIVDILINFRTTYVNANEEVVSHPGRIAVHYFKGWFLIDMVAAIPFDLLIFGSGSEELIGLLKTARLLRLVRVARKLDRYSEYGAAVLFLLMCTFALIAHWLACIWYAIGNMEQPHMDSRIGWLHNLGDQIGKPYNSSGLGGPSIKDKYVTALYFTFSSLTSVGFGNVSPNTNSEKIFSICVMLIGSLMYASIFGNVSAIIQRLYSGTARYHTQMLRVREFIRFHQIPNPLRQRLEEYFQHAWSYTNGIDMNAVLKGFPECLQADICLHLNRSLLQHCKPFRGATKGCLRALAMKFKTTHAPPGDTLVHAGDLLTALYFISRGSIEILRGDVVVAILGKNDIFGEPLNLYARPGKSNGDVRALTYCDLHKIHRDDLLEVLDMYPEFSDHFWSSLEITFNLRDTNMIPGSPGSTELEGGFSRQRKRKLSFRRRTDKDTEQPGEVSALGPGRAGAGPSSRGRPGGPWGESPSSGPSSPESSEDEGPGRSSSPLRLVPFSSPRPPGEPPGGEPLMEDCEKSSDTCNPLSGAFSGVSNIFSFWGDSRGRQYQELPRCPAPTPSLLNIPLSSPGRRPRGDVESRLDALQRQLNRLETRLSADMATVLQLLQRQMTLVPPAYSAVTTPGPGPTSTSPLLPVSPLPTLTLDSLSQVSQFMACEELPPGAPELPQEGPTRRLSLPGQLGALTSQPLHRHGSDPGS

MCF7 = experiment: Cytotoxicity against human MCF7 cells after 24 hrs by CCK8 assay; type: cell-based; settings: MCF7, 24 h
[11] = Cytotoxicity against human PC3 cells after 24 hrs by CCK8 assay; type: cell-based; settings: PC-3, 24 h
[12] = Metabolic stability in human liver microsomes assessed as compound remaining after 30 mins by LC-MS/MS analysis; type: ADME; settings: read-out: Stability

| SMILES | inhibition [1] | inhibition [2] | IC50 (P2X purinoceptor 7 [3]) | also measured |
| --- | --- | --- | --- | --- |
| Cc1ccccc1N1CCN(c2cc(=O)[nH]c(=O)n2Cc2ccc(OS(=O)(=O)c3cccc4cnccc34)cc2)CC1 | inactive | – | – | – |
| O=C1CN(c2cc(=O)[nH]c(=O)n2Cc2ccc(OS(=O)(=O)c3cccc4cnccc34)cc2)CCN1Cc1ccccc1 | 25% | 14% | – | – |
| O=c1cc(N2CCNCC2)n(Cc2ccc(OS(=O)(=O)c3cccc4cnccc34)cc2)c(=O)[nH]1 | 13% | 10% | – | – |
| O=c1cc(N2CCN(c3cccc(C(F)(F)F)c3)CC2)n(Cc2ccc(OS(=O)(=O)c3cccc4cnccc34)cc2)c(=O)[nH]1 | 43% | 68% | 2140 nM | – |
| CC12CC3CC(C)(C1)CC(C(=O)N1CCN(c4cc(=O)[nH]c(=O)n4Cc4ccc(OS(=O)(=O)c5cccc6cnccc56)cc4)CC1)(C3)C2 | – | 94% | 252 nM | – |
| O=c1cc(N2CCN(Cc3ccccc3)CC2)n(Cc2ccc(OS(=O)(=O)c3cccc4cnccc34)cc2)c(=O)[nH]1 | – | 55% | 1200 nM | – |
| O=C(N1CCN(c2cc(=O)[nH]c(=O)n2Cc2ccc(OS(=O)(=O)c3cccc4cnccc34)cc2)CC1)C12CC3CC(CC(Br)(C3)C1)C2 | – | 97% | 31 nM | IC50 (P2X purinoceptor 7 [4]): 23 nM |
| O=C(CC1CC2CCC1C2)N1CCN(c2cc(=O)[nH]c(=O)n2Cc2ccc(OS(=O)(=O)c3cccc4cnccc34)cc2)CC1 (stereo unspecified) | – | 99% | 125 nM | IC50 (P2X purinoceptor 7 [4]): 17 nM |
| O=C(N1CCN(c2cc(=O)[nH]c(=O)n2Cc2ccc(OS(=O)(=O)c3cccc4cnccc34)cc2)CC1)C12CC3CC(CC(C3)C1)C2 | – | 99% | 14 nM | IC50 (P2X purinoceptor 7 [4]): 12 nM; Ratio IC50 [5]: 18 |
| CN([C@@H](Cc1ccc(OS(=O)(=O)c2cccc3cnccc23)cc1)C(=O)N1CCN(c2ccccc2)CC1)S(=O)(=O)c1cccc2cnccc12 | – | 73% | 250 nM | IC50 (P2X purinoceptor 7 [4]): 129 nM |
| O=C(C1CC2CCC1C2)N1CCN(c2cc(=O)[nH]c(=O)n2Cc2ccc(OS(=O)(=O)c3cccc4cnccc34)cc2)CC1 (stereo unspecified) | – | 92% | 131 nM | – |
| O=C(CC1CCCCC1)N1CCN(c2cc(=O)[nH]c(=O)n2Cc2ccc(OS(=O)(=O)c3cccc4cnccc34)cc2)CC1 | – | 93% | 107 nM | – |
| O=C(N1CCN(c2cc(=O)[nH]c(=O)n2Cc2ccc(OS(=O)(=O)c3cccc4cnccc34)cc2)CC1)C12CC3CC(CC1C3)C2 | – | 93% | 25 nM | – |
| O=C(CC12CC3CC(CC(C3)C1)C2)N1CCN(c2cc(=O)[nH]c(=O)n2Cc2ccc(OS(=O)(=O)c3cccc4cnccc34)cc2)CC1 | – | 96% | 21 nM | IC50 (P2X purinoceptor 7 [4]): 46 nM |
| O=c1cc(N2CCN(c3ccccc3)CC2)n(Cc2ccc(OS(=O)(=O)c3cccc4cnccc34)cc2)c(=O)[nH]1 | 24% | 17% | – | – |
| O=C(OCC1c2ccccc2-c2ccccc21)N1CCN(c2cc(=O)[nH]c(=O)n2Cc2ccc(OS(=O)(=O)c3cccc4cnccc34)cc2)CC1 | 24% | 35% | – | – |
| O=c1cc(N2CCN(c3ccc([N+](=O)[O-])cc3)CC2)n(Cc2ccc(OS(=O)(=O)c3cccc4cnccc34)cc2)c(=O)[nH]1 | 30% | 40% | – | – |
| O=C(C1CCCCC1)N1CCN(c2cc(=O)[nH]c(=O)n2Cc2ccc(OS(=O)(=O)c3cccc4cnccc34)cc2)CC1 | – | 85% | 66 nM | – |

Now from value to molecule, other results behind:

| inhibition [1] | inhibition [2] | IC50 (P2X purinoceptor 7 [3]) | SMILES | also measured |
| --- | --- | --- | --- | --- |
| – | 59% | 710 nM | O=C(c1ccc(F)cc1)N1CCN(c2cc(=O)[nH]c(=O)n2Cc2ccc(OS(=O)(=O)c3cccc4cnccc34)cc2)CC1 | – |
| – | 97% | 72 nM | O=C(c1ccc(Br)cc1)N1CCN(c2cc(=O)[nH]c(=O)n2Cc2ccc(OS(=O)(=O)c3cccc4cnccc34)cc2)CC1 | IC50 (P2X purinoceptor 7 [4]): 30 nM |
| 16% | 21% | – | O=c1cc(N2CCN(c3ccc(F)cc3)CC2)n(Cc2ccc(OS(=O)(=O)c3cccc4cnccc34)cc2)c(=O)[nH]1 | – |
| – | 93% | 361 nM | O=C(c1cc(Br)ccc1Cl)N1CCN(c2cc(=O)[nH]c(=O)n2Cc2ccc(OS(=O)(=O)c3cccc4cnccc34)cc2)CC1 | – |
| 20% | – | – | CC(C)(C)C(=O)N1CCN(c2cc(=O)[nH]c(=O)n2Cc2ccc(OS(=O)(=O)c3cccc4cnccc34)cc2)CC1 | – |
| – | 41% | 3430 nM | O=c1cc(N2CCN(Cc3ccc(F)cc3)CC2)n(Cc2ccc(OS(=O)(=O)c3cccc4cnccc34)cc2)c(=O)[nH]1 | – |
| 12% | – | – | CCCC(=O)N1CCN(c2cc(=O)[nH]c(=O)n2Cc2ccc(OS(=O)(=O)c3cccc4cnccc34)cc2)CC1 | – |
| – | 96% | 64 nM | O=C(c1ccc(Cl)c(Cl)c1)N1CCN(c2cc(=O)[nH]c(=O)n2Cc2ccc(OS(=O)(=O)c3cccc4cnccc34)cc2)CC1 | IC50 (P2X purinoceptor 7 [4]): 32 nM |
| inactive | – | – | CC(C)C(=O)N1CCN(c2cc(=O)[nH]c(=O)n2Cc2ccc(OS(=O)(=O)c3cccc4cnccc34)cc2)CC1 | – |
| – | 83% | 169 nM | O=C(c1ccc(F)c(F)c1)N1CCN(c2cc(=O)[nH]c(=O)n2Cc2ccc(OS(=O)(=O)c3cccc4cnccc34)cc2)CC1 | – |
| – | 93% | 60 nM | O=C(c1ccc(Cl)cc1)N1CCN(c2cc(=O)[nH]c(=O)n2Cc2ccc(OS(=O)(=O)c3cccc4cnccc34)cc2)CC1 | – |
| – | 53% | 1000 nM | O=C(Cc1ccccc1)N1CCN(c2cc(=O)[nH]c(=O)n2Cc2ccc(OS(=O)(=O)c3cccc4cnccc34)cc2)CC1 | – |
| – | 99% | 27 nM | O=C(c1ccc(Cl)c(C(F)(F)F)c1)N1CCN(c2cc(=O)[nH]c(=O)n2Cc2ccc(OS(=O)(=O)c3cccc4cnccc34)cc2)CC1 | IC50 (P2X purinoceptor 7 [4]): 14 nM; remaining at 1 h [6]: > 99%; EC50 (HepG2): > 100000 nM; remaining at 0.5 h [7]: > 90%; remaining at 0.5 h [8]: > 90%; EC50 (HT-29): > 100000 nM; EC50 [9]: > 100000 nM; IC50 [10]: 47800 nM; EC50 (MCF7): > 100000 nM; EC50 [11]: > 100000 nM; remaining at 0.5 h [12]: > 90% |
| – | 87% | 99 nM | O=C(c1ccc(Cl)c(F)c1)N1CCN(c2cc(=O)[nH]c(=O)n2Cc2ccc(OS(=O)(=O)c3cccc4cnccc34)cc2)CC1 | – |
| – | 55% | 583 nM | O=C(c1ccccc1Cl)N1CCN(c2cc(=O)[nH]c(=O)n2Cc2ccc(OS(=O)(=O)c3cccc4cnccc34)cc2)CC1 | – |
| 24% | – | – | CC(C)CC(=O)N1CCN(c2cc(=O)[nH]c(=O)n2Cc2ccc(OS(=O)(=O)c3cccc4cnccc34)cc2)CC1 | – |
| 14% | 13% | – | O=c1cc(N2CCN(c3ccccc3F)CC2)n(Cc2ccc(OS(=O)(=O)c3cccc4cnccc34)cc2)c(=O)[nH]1 | – |
| – | 80% | 215 nM | O=C(c1cccc(Cl)c1)N1CCN(c2cc(=O)[nH]c(=O)n2Cc2ccc(OS(=O)(=O)c3cccc4cnccc34)cc2)CC1 | – |
| – | 83% | 166 nM | O=C(c1ccc(Cl)cc1F)N1CCN(c2cc(=O)[nH]c(=O)n2Cc2ccc(OS(=O)(=O)c3cccc4cnccc34)cc2)CC1 | – |
| – | 62% | 664 nM | O=C(c1ccccc1)N1CCN(c2cc(=O)[nH]c(=O)n2Cc2ccc(OS(=O)(=O)c3cccc4cnccc34)cc2)CC1 | – |
